Reference: PubChem BioAssay (NCI)
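A five-concentration, 48-hour dose response in 96-well plates underlies each endpoint, interpolated linearly between surrounding concentrations. GI50 marks 50% less growth. TGI: concentration producing complete growth inhibition.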

Key:
Assay in all cases: NCI anticancer screen, dose series, 48 h
[1] = system: MCF7 breast
[2] = system: A498 renal
[3] = system: SNB-75 CNS
[4] = system: OVCAR-4 ovarian
[5] = system: SNB-19 CNS
[6] = system: K-562 leukemia
[7] = system: CAKI-1 renal
[8] = system: SF-268 CNS
[9] = system: SK-MEL-28 melanoma
[10] = system: HOP-62 NSCLC
[11] = system: UO-31 renal
[12] = system: 786-0 renal
[13] = system: OVCAR-3 ovarian
[14] = system: BT-549 breast
[15] = system: HT29 colon
[16] = system: ACHN renal
[17] = system: HS 578T breast
[18] = system: RPMI-8226 leukemia
[19] = system: LOX IMVI melanoma
[20] = system: EKVX NSCLC
[21] = system: OVCAR-5 ovarian
[22] = system: SR leukemia
[23] = system: OVCAR-8 ovarian
[24] = system: HCT-15 colon
[25] = system: KM12 colon
[26] = system: MDA-MB-435
[27] = system: SF-295 CNS
[28] = system: RXF 393 renal
[29] = system: NCI-H460 lung
[30] = system: SK-MEL-5 melanoma
[31] = system: SK-MEL-2 melanoma
[32] = system: COLO 205 colon
[33] = system: HCC-2998 colon
[34] = system: NCI-H226 lung
[35] = system: IGROV1 ovarian
[36] = system: PC-3 prostate
[37] = system: SF-539 CNS
[38] = system: DU-145 prostate
[39] = system: MALME-3M melanoma
[40] = system: SW-620 colon
[41] = system: A549 NSCLC
[42] = system: NCI-H522 lung
[43] = system: TK-10 renal
[44] = system: CCRF-CEM leukemia
[45] = system: NCI-H23 lung
[46] = system: MDA-MB-231 breast
[47] = system: UACC-257 melanoma
[48] = system: NCI/ADR-RES ovarian
[49] = system: SN12C renal
[50] = system: M14 melanoma
[51] = system: T-47D breast
[52] = system: SK-OV-3 ovarian
[53] = system: HCT-116 colon
[54] = system: UACC-62 melanoma
[55] = system: U251 CNS

Compound: O=C([O][Sn]([O]C(=O)c1ccccn1)([c]1ccccc1)[c]1ccccc1)c1ccccn1
- GI50 [1]: 2.67 µM
- TGI [1]: 13.4 µM
- GI50 [2]: 1.87 µM
- TGI [2]: 6.56 µM
- GI50 [3]: 2.54 µM
- TGI [3]: 13 µM
- GI50 [4]: 7.53 µM
- TGI [4]: 20.3 µM
- GI50 [5]: 15.5 µM
- TGI [5]: 29.1 µM
- GI50 [6]: 0.405 µM
- TGI [6]: 6.37 µM
- GI50 [7]: 1.61 µM
- TGI [7]: 3.98 µM
- GI50 [8]: 2.76 µM
- TGI [8]: 9.09 µM
- GI50 [9]: 3.4 µM
- TGI [9]: 13.3 µM
- GI50 [10]: 16.5 µM
- TGI [10]: 31.5 µM
- GI50 [11]: 2.05 µM
- TGI [11]: 4.66 µM
- GI50 [12]: 5.14 µM
- TGI [12]: 16.8 µM
- GI50 [13]: 1.62 µM
- TGI [13]: 2.98 µM
- GI50 [14]: 8.25 µM
- TGI [14]: 20.7 µM
- GI50 [15]: 3.06 µM
- TGI [15]: 7.97 µM
- GI50 [16]: 9.36 µM
- TGI [16]: 21.2 µM
- GI50 [17]: 2.32 µM
- TGI [17]: 8.88 µM
- GI50 [18]: 1.86 µM
- TGI [18]: 6.13 µM
- GI50 [19]: 1.4 µM
- TGI [19]: 2.7 µM
- GI50 [20]: 13.7 µM
- TGI [20]: 26.9 µM
- GI50 [21]: 16.5 µM
- TGI [21]: 30.1 µM
- GI50 [22]: 1.22 µM
- TGI [22]: 11.3 µM
- GI50 [23]: 11.3 µM
- TGI [23]: 24 µM
- GI50 [24]: 6.95 µM
- TGI [24]: 20.4 µM
- GI50 [25]: 13.2 µM
- TGI [25]: 25.9 µM
- GI50 [26]: 2.29 µM
- TGI [26]: 6.04 µM
- GI50 [27]: 16.1 µM
- TGI [27]: 31.9 µM
- GI50 [28]: 2.77 µM
- TGI [28]: 13 µM
- GI50 [29]: 12.2 µM
- TGI [29]: 26.2 µM
- GI50 [30]: 12.1 µM
- TGI [30]: 24.4 µM
- GI50 [31]: 2.57 µM
- TGI [31]: 6.26 µM
- GI50 [32]: 6.28 µM
- TGI [32]: 19.4 µM
- GI50 [33]: 13.1 µM
- TGI [33]: 26 µM
- GI50 [34]: 14.7 µM
- TGI [34]: 29.6 µM
- GI50 [35]: 1.83 µM
- TGI [35]: 4.03 µM
- GI50 [36]: 11.8 µM
- TGI [36]: 25.6 µM
- GI50 [37]: 6.65 µM
- TGI [37]: 19.7 µM
- GI50 [38]: 1.93 µM
- TGI [38]: 4.19 µM
- GI50 [39]: 1.61 µM
- TGI [39]: 3.49 µM
- GI50 [40]: 1.13 µM
- TGI [40]: 2.34 µM
- GI50 [41]: 17.6 µM
- TGI [41]: 31.5 µM
- GI50 [42]: 0.14 µM
- TGI [42]: 0.291 µM
- GI50 [43]: 2.63 µM
- TGI [43]: 5.2 µM
- GI50 [44]: 0.565 µM
- TGI [44]: 2.95 µM
- GI50 [45]: 3.08 µM
- TGI [45]: 12.8 µM
- GI50 [46]: 5.29 µM
- TGI [46]: 18.4 µM
- GI50 [47]: 1.62 µM
- TGI [47]: 3.61 µM
- GI50 [48]: 11.8 µM
- TGI [48]: 24.8 µM
- GI50 [49]: 13.8 µM
- TGI [49]: 26.9 µM
- GI50 [50]: 4.56 µM
- TGI [50]: 15.8 µM
- GI50 [51]: 1.56 µM
- TGI [51]: 3.33 µM
- GI50 [52]: 55.5 µM
- TGI [52]: > 100 µM
- GI50 [53]: 1.71 µM
- TGI [53]: 3.11 µM
- GI50 [54]: 4.96 µM
- TGI [54]: 17.5 µM
- GI50 [55]: 1.95 µM
- TGI [55]: 4.62 µM
